Article PMC2765639 (PLoS Neglected Tropical Diseases, 2009)
Read-outs that look alike come from different tables or passages of the source.

Columns and labels:
L. major promastigotes [1] = assay: Flow cytometer-based growth inhibition and cytotoxicity assay; details: 48 h, read-out: L. major promastigote EC50 (AVE±SD) Confirmation Flow Cytometry
[2] = system: L. major axenic amastigote-like population; assay: L. major axenic amastigote-like alamar blue assay (pH 4.9); assay type: cell-based, Leishmania major; details: for growth inhibitory activity in axenic amastigote-like assay: pH 4.9
human cell lines = assay: Human cell line panel (A549, HeLa, IMR-90, PC-3, MDA-MB-231); assay type: cell-based
Protocol: (§1) Mammalian cells were cultured and maintained according to ATCC specifications (ATCC, Manassas, VA). Cell line drug susceptibility assays were performed in final volumes of 25 µL using our previously described 384-well microtiter plate format,[39]. Briefly, for automated HTS procedures, cells (A549, IMR-90 and, HeLa, 1,000 cells; PC-3, 750 cells and; MDA-MB-231, 3,000 cells) in complete culture medium were seeded into each well of 384-well microtiter plates using a Titertek MAPC-2 bulk dispenser. Test and control compounds were added to individual wells as described above. Vehicle and positive controls were 1% DMSO and 10% DMSO, respectively (final well concentrations). Assay plates were incubated for 44–46 h at 37°C in the presence of 5% CO2 and growth inhibitory effects were determined as described above. Five µL of alamar blue reagent was added to each well and incubated for 2–4 h. Data were captured as described above.

IMR-90 = assay: Mammalian cell line specificity assay (alamar blue); assay type: cell-based, human
Protocol: as §1, with “Briefly, for automated HTS procedures, cells (A549, IMR-90 and, HeLa, 1,000 cells; PC-3, 750 cells and; MDA-MB-231, 3,000 cells) in complete culture medium were seeded into each well of 384-well microtiter plates using a Titertek MAPC-2 bulk dispenser.” left out

HeLa = assay: as above; assay type: cell-based, human; details: read-out: HeLa EC50 (AVE±SD)
Protocol: as §1, with “Briefly, for automated HTS procedures, cells (A549, IMR-90 and, HeLa, 1,000 cells; PC-3, 750 cells and; MDA-MB-231, 3,000 cells) in complete culture medium were seeded into each well of 384-well microtiter plates using a Titertek MAPC-2 bulk dispenser.” left out

MDA-MB-231 = assay: as above; assay type: cell-based, human
Protocol: as §1, with “Briefly, for automated HTS procedures, cells (A549, IMR-90 and, HeLa, 1,000 cells; PC-3, 750 cells and; MDA-MB-231, 3,000 cells) in complete culture medium were seeded into each well of 384-well microtiter plates using a Titertek MAPC-2 bulk dispenser.” left out

A549 = assay: as above; assay type: cell-based, human
Protocol: as §1, with “Briefly, for automated HTS procedures, cells (A549, IMR-90 and, HeLa, 1,000 cells; PC-3, 750 cells and; MDA-MB-231, 3,000 cells) in complete culture medium were seeded into each well of 384-well microtiter plates using a Titertek MAPC-2 bulk dispenser.” left out

PC-3 = assay: as above; assay type: cell-based, human
Protocol: as §1, with “Briefly, for automated HTS procedures, cells (A549, IMR-90 and, HeLa, 1,000 cells; PC-3, 750 cells and; MDA-MB-231, 3,000 cells) in complete culture medium were seeded into each well of 384-well microtiter plates using a Titertek MAPC-2 bulk dispenser.” left out

L. major promastigotes [3] = assay: L. major promastigote drug susceptibility assay (alamar blue, 384-well); assay type: cell-based, Leishmania major
Protocol: Promastigotes were grown in vented T75 tissue culture flasks and maintained at 28°C. Promastigote cultures were initiated at 10^5 parasites per mL and subcultured every 3–4 days. L. major promastigote counts were performed in duplicate using a hemocytometer and particle counter (Beckman Coulter, Fullerton, CA). For HTS assays, L. major promastigote cultures were harvested during exponential growth phase (∼2.0–3.0×10^7 parasites/mL) and were not maintained past passage 20.
The final test compound concentration was 10 µM with a constant DMSO concentration of 1% in each assay well.
The L. major promastigote drug susceptibility assay was performed in a final volume of 25 µL using our previously described 384-well microtiter plate format,[39]. For automated HTS procedures, L. major promastigotes (5,000 parasites/22 µL) in complete growth medium were seeded into each well of the microtiter plates using a MAPC2 bulk dispenser (Titertek, Huntsville, AL). Test and control compounds (3 µL) were added to individual wells using a Velocity 11 V-prep (Menlo Park, CA) liquid handling system, equipped with a 384-well dispensing head, followed by centrifugation at 50 g for 1 min. […] Assay plates were allowed to incubate for 44 h at 28°C in the presence of 5% CO2. Five µL of alamar blue reagent were added to each assay plate well and incubated for 4 h at 28°C with 5% CO2. Data were captured on a Molecular Devices SpectraMax M5 (excitation560; emission590). Individual assay plate Z-factors were derived from the vehicle and positive controls, and data from plates were used only if Z-factors were >0.5 [50].
The assays were performed in duplicate with a final 10-point concentration range spanning 0.01–5.00 µM.

L. major = assay: In vivo murine CL efficacy study (footpad lesion model); set-up: species or system Balb/c mice; details: for decrease in footpad thickness: 40 mg/kg; for reduction in footpad thickness: 160 mg/kg, vs vehicle
Protocol: Adult female Balb/c mice (6 to 10 week old) were obtained from (Charles River Laboratories, Wilmington, MA) and maintained as outlined by the National Institutes of Health Guide for the Care and Use of Laboratory Animals. All in vivo studies were carried out in accordance with protocols approved by the Institutional Animal Care and Use Committee (IACUC) at the University of Miami (IACUC number C01-08). Food and water were supplied ad libitum. […] Animals were examined daily to determine lesion development. […] Control mice were injected with an equivalent amount of vehicle control or amphotericin B (12.5 mg/kg). […] Mice were euthanized in a CO2 chamber at day 21.

[4] = Leishmania major, pH 4.9, 144 h, 32°C, read-out: L. major axenic amastigote-like EC50 (AVE±SD) Confirmation Alamar Blue
[5] = Homo sapiens, IMR-90, 44–46 h, alamar blue, read-out: IMR90 EC50 (AVE±SD)
[6] = Homo sapiens, HeLa, 44–46 h, alamar blue
[7] = Homo sapiens, MDA-MB-231, 44–46 h, alamar blue, read-out: MDA EC50 (AVE±SD)
[8] = Homo sapiens, A549, 44–46 h, alamar blue, read-out: A549 EC50 (AVE±SD)
[9] = Homo sapiens, A549, Table S1, PMLSC library samples, read-out: EC50 Ave ± SD, A549
[10] = Homo sapiens, PC-3, 44–46 h, alamar blue, read-out: PC-3 EC50 (AVE±SD)
[11] = Leishmania major, 48 h, compounds from commercial supplier, 44 h + 4 h alamar blue, 28°C, read-out: L. major promastigote EC50 (AVE±SD) Confirmation Alamar Blue
[12] = Leishmania major, Table S1, PMLSC library samples, 10-point 0.01–5.00 µM, read-out: EC50 Ave ± SD, Lm
[13] = Leishmania major, 144 h, pH 4.9, read-out: L. major axenic amastigote-like EC50 (AVE±SD) Confirmation Alamar Blue
[14] = Leishmania major, read-out: EC50 Ave ± SD, Lm

Molecule | EC50 (L. major promastigotes [1]; Leishmania major) [nM] | EC50 [2, 4] [nM] | EC50 (IMR-90; [5]) [µM] | EC50 (HeLa; [6]) [µM] | EC50 (MDA-MB-231; [7]) [µM] | EC50 (A549; [8]) [µM] | EC50 (A549; [9]) [µM] | EC50 (PC-3; [10]) [µM] | EC50 (L. major promastigotes [3]; [11]) [nM] | EC50 (L. major promastigotes [3]; [12]) [nM] | further results
N[C@H](C(=O)O)[C@@H]1CC(Cl)=NO1 [Acivicin, reference compound] | 40 ± 10 | 1100 ± 60 | 6.7 ± 0.4 | 3.9 ± 3 | > 50 | 4.4 ± 0.4 | > 5 | > 50 | 6 ± 1 | 177 ± 3 | growth inhibition of human cell lines tested (human cell lines): inhibited the growth of human cell lines tested
C[C@@H]1[C@H](O)[C@@H](C)/C=C/C=C/C=C/C=C/C=C/C=C/C=C/[C@H](O[C@@H]2O[C@H](C)[C@@H](O)[C@H](N)[C@@H]2O)C[C@@H]2O[C@](O)(C[C@@H](O)C[C@@H](O)[C@H](O)CC[C@@H](O)C[C@@H](O)CC(=O)O[C@H]1C)C[C@H](O)[C@H]2C(=O)O [Amphotericin B, reference compound] | 190 ± 60 | 380 ± 10 | 8.7 ± 2.4 | > 50 | > 50 | > 50 |  | > 50 | 210 ± 10 |  | reduction in footpad swelling (in vivo effects, summary) (L. major; summary statement in results/discussion): 85–90%; EC50 (L. major promastigotes [3]; Leishmania major, assay optimization, read-out: EC50, L. major promastigotes, 384-well format): 207 ± 11 nM
C[C@@]1(CO)[C@H](O)CC[C@@]2(C)[C@H]1CC[C@H]1C[C@@H]3C[C@@]12CC[C@]3(O)CO [Aphidicolin, reference compound] | 390 ± 110 | 50 ± 10 | > 50 | > 50 | > 50 | > 50 | > 5 | > 50 | 220 ± 20 | 121 ± 20 | growth inhibitory activity in axenic amastigote-like assay [2]: comparable to amphotericin B
CCN(CC)C(=S)SSC(=S)N(CC)CC [Disulfiram] | 190 ± 60 | 130 ± 10 | > 50 | > 50 | > 50 | > 50 | 2.16 ± 1.22 | > 50 | 500 ± 50 | 263 ± 20 | decrease in footpad thickness (L. major; day 14): 25%; decrease in footpad thickness (L. major; day 21): 35%; reduction in footpad thickness (L. major; day 14 post-infection): ~43%; reduction in footpad thickness (L. major; day 21 post-infection): 50%; growth inhibitory activity in axenic amastigote-like assay [2]: comparable to amphotericin B
CN(C)CCOc1ccccc1Cc1ccccc1 [Phenytoloxamine, reference compound] | 300 ± 30 |  | > 50 | > 50 | > 50 | > 50 | > 5 | > 50 |  |  | EC50 [2, 13]: > 50000 nM; EC50 (L. major promastigotes [3]; [14]): 502 ± 87 nM
NC(=O)c1cn([C@@H]2O[C@H](CO)[C@@H](O)[C@H]2O)c2ncnc(N)c12 [Sangivamycin, reference compound] | 140 ± 20 |  |  |  |  |  |  |  |  |  | EC50 [2, 13]: 4300 ± 300 nM; growth inhibition of human cell lines tested (human cell lines): inhibited the growth of human cell lines tested; EC50 (IMR-90; Homo sapiens, IMR-90, read-out: IMR90 EC50 (AVE±SD)): > 50 µM; EC50 (HeLa; Homo sapiens, HeLa): > 50 µM; EC50 (MDA-MB-231; Homo sapiens, MDA-MB-231, read-out: MDA EC50 (AVE±SD)): > 50 µM; EC50 (A549; Homo sapiens, A549, read-out: A549 EC50 (AVE±SD)): 0.07 ± 0.02 µM; EC50 (A549; Homo sapiens, A549, read-out: EC50 Ave ± SD, A549): 0.072 ± 0.005 µM; EC50 (PC-3; Homo sapiens, PC-3, read-out: PC-3 EC50 (AVE±SD)): > 50 µM; EC50 (L. major promastigotes [3]; [14]): 164 ± 11 nM
Pentamidine Isethionate [reference compound] |  |  |  |  |  |  |  |  |  |  | EC50 (L. major promastigotes [1]; 28°C, ViaCount, 0.1–50 µM): 730 ± 390 nM; EC50 ([2]; read-out: L. major axenic amastigote-like EC50 (AVE±SD) Confirmation Alamar Blue, pH 4.9, 144 h, 32°C): 1260 ± 40 nM; EC50 (IMR-90; read-out: IMR90 EC50 (AVE±SD), 44–46 h, alamar blue): > 50 µM; EC50 (HeLa; 44–46 h, alamar blue): > 50 µM; EC50 (MDA-MB-231; read-out: MDA EC50 (AVE±SD), 44–46 h, alamar blue): > 50 µM; EC50 (A549; read-out: A549 EC50 (AVE±SD), 44–46 h, alamar blue): > 50 µM; EC50 (A549; read-out: EC50 Ave ± SD, A549, Table S1, PMLSC library samples): > 5 µM; EC50 (PC-3; read-out: PC-3 EC50 (AVE±SD), 44–46 h, alamar blue): > 50 µM; EC50 (L. major promastigotes [3]; read-out: EC50 Ave ± SD, Lm, Table S1, PMLSC library samples, 10-point 0.01–5.00 µM): 46 ± 12 nM; primary hit (≥50% inhibition of signal readout) (L. major promastigotes [3]; single concentration 10 µM, LOPAC, UP-CMLD DP validation set or PMLSC library): primary hits
